Here are results for 12 compounds from PMC10096391, “Discovery of N,4-Di(1H-pyrazol-4-yl)pyrimidin-2-amine-Derived CDK2 Inhibitors as Potential Anticancer Agents: Design, Synthesis, and Evaluation” (Molecules, 2023).

The structures appear in SMILES notation.

Experiment [1] deals with CDK1/cyclin B (CDK1B) (Homo sapiens, UniProt P06493). As to the kind of experiment: ADP-Glo kinase assay, CDK1/cyclin B. The format is biochemical. Particulars: for Ki: apparent Ki from IC50, ADP-Glo; for inhibition at 1 µM: read-out: % Enzymatic Inhibition at 1 µM CDK1B. On the procedure: (§1) The luminescent ADP-Glo™ assay, which measures the amount of ADP formed in a kinase reaction as described previously, was used to determine the kinase inhibition profile of the compounds. […] Ki values were calculated from their corresponding IC50 values (the concentrations of inhibitors that inhibit the kinase activity by 50%) and the Michaelis–Menten constant (Km) of ATP for each kinase using the Cheng–Prusoff equation as previously stated. In brief, 1 μL of each concentration of the test compounds was added to the respective wells, and to it were added 1 μL of the kinases and their respective substrates, diluted to the desired concentration in kinase reaction buffer ([…] tris base pH 7.5, 20 mM MgCl2, 0.4 µM dithiothreitol, and 0.1 mg/mL bovine serum albumin), and the pH was adjusted by adding 1 μL of a two-fold diluted kinase reaction buffer. To initiate the kinase activity, 1 μL of ATP solution (the concentration varies depending on the type of kinase under investigation) was added to each well, and the mixture was incubated at room temperature (20 to 22 °C) for 30–60 min depending on the kinase being tested. The reaction was then halted, 5 μL of the ADP-Glo reagent was added to each well (removing any unreacted ATP), and it was incubated at room temperature for 40 min. Then, to each well, 10 μL of the kinase detection reagent containing luciferin was added, which was incubated once more at room temperature in the dark for 30 min and the luminescence was measured by an EnVision® multi-label plate reader with an integration time of 1.5 s per well. Positive controls (the wells without the inhibitor) and negative or blank controls (the wells without the inhibitor and the enzyme, but with 1 × kinase reaction buffer) were also determined in 2.5% DMSO.
(§2) The percentage of kinase inhibition was determined using the following equation: % Residual kinase activity=Luminescence in the presence of inhibitor−Luminescence of blank control/Luminescence in the absence of inhibitor−Luminescence of blank control×100%%kinase inhbition=100%−%Residual kinase activity
(§3) Km is defined as the concentration of ATP or the substrate required to produce 50% of the maximal reaction rate in the kinase reaction. Therefore, since we used the concentration of ATP and the substrate at their Km values, Ki simply equals IC50/2 assuming these inhibitors are ATP-competitive based on the Cheng–Prusoff equation: Ki = IC50/(1 + ([ATP]/Km(ATP))) where [ATP] is the ATP concentration used for the IC50 determination and Km(ATP) for each kinase was determined experimentally.
In general terms: ADP-Glo first removes unused ATP, then detects ADP through luciferase.

The target in experiment [2] is CDK5/p25 (CDK5p25) (Homo sapiens, UniProt Q00535). The experiment can be described thus: ADP-Glo kinase assay, CDK5/p25. In kind it is biochemical. Particulars: for Ki: apparent Ki from IC50, ADP-Glo; for inhibition at 1 µM: read-out: % Enzymatic Inhibition at 1 µM CDK5p25. The method, then:
as §1, with “Then, to each well, 10 μL of the kinase detection reagent containing luciferin was added, which was incubated once more at room temperature in the dark for 30 min and the luminescence was measured by an EnVision® multi-label plate reader with an integration time of 1.5 s per well.” left out
as §2, §3

In experiment [3] the test system is A2780 ovarian cancer cells. The experiment can be described thus: 72 h MTT antiproliferative assay, A2780. The format is cell-based. Particulars: for GI50 / inhibition at 1 µM: Homo sapiens, A2780, 72 h MTT; for inhibition at 1 µM: read-out: % Growth Inhibition (GI) at 1 µM A2780. From the text:
Cancer cell lines derived from leukemia (MV4-11 and U937), breast (MCF7 (Rb-positive) and MDA-MB-231(Rb-negative)), and ovarian (A2780, OVCAR5, OAW28, OV90, Cov318, and Cov504) cancers, and glioblastoma (U87, T98G and U251) were acquired from the cell bank at Drug Discovery and Development, University of South Australia, and cultured according to the American Type Culture Collection (ATCC) recommendation in Roswell Park Memorial Institute (RPMI)-1640, Dulbecco’s Modified Eagle’s Medium (DMEM), or Minimum Essential Media (MEM), with 10% fetal bovine serum (Sigma-Aldrich, Castle Hill, NSW, Australia) within a humidified incubator at 37 °C in the presence of 5% CO2.
The MTT (Life Technologies, Mulgrave, VIC, Australia) and resazurin (Sigma-Aldrich) assays were used to determine the antiproliferative activities of the compounds initially at 1 µM against the cancer cell lines stated above.
A general note: Formazan colour is commonly taken as a measure of viable cells.

Experiment [4] has as its target CDK2/cyclin E (CDK2E) (Homo sapiens, UniProt P24941). As to the kind of experiment: ADP-Glo kinase assay, CDK2/cyclin E. The format is biochemical. The settings on record: for Ki: apparent Ki from IC50, ADP-Glo; for inhibition at 1 µM: read-out: % Enzymatic Inhibition at 1 µM CDK2E. The method, then: as §1, §2, §3
Experiment [5] has as its target CDK9/cyclin T1 (CDK9T1) (Homo sapiens, UniProt P50750). As to the kind of experiment: ADP-Glo kinase assay, CDK9/cyclin T1. Particulars: for Ki: apparent Ki from IC50, ADP-Glo; for inhibition at 1 µM: read-out: % Enzymatic Inhibition at 1 µM CDK9T1. In kind it is biochemical. The method, then:
as §1, with “Then, to each well, 10 μL of the kinase detection reagent containing luciferin was added, which was incubated once more at room temperature in the dark for 30 min and the luminescence was measured by an EnVision® multi-label plate reader with an integration time of 1.5 s per well.” left out
as §2, §3

Sequence of CDK9/cyclin T1 (CDK9T1) (P50750 whole entry): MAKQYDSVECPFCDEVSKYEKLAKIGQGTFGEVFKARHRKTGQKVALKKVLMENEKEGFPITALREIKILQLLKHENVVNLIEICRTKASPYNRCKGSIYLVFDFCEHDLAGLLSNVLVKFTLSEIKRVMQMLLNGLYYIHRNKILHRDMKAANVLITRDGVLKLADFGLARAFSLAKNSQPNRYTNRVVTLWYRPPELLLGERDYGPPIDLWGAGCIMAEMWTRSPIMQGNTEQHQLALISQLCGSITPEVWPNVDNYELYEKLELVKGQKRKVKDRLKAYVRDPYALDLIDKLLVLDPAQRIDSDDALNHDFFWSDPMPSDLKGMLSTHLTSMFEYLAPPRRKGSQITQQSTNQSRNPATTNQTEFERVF
Sequence of CDK9/cyclin T1 (CDK9T1) (O60563 whole entry partner): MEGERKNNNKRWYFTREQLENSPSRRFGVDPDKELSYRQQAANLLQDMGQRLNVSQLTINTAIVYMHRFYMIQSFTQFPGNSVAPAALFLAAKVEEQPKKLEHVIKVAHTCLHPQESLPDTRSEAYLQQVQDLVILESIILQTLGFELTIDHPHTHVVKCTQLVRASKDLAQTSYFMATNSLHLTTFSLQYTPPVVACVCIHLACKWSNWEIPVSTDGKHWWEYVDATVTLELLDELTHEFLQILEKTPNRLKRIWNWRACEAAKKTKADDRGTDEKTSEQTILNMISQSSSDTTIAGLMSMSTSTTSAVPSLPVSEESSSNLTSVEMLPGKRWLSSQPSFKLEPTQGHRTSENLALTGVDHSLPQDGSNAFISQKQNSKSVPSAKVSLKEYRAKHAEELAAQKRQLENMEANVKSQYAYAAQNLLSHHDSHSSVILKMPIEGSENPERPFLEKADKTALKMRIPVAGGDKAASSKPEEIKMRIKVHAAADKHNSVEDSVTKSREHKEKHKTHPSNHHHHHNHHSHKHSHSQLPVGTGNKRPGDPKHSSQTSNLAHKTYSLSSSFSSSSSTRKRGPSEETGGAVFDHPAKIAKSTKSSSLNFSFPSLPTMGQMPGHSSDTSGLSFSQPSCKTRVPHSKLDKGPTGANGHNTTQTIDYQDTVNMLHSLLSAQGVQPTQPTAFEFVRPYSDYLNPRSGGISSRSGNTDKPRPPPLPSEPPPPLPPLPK
Sequence of CDK1/cyclin B (CDK1B) (P06493 whole entry): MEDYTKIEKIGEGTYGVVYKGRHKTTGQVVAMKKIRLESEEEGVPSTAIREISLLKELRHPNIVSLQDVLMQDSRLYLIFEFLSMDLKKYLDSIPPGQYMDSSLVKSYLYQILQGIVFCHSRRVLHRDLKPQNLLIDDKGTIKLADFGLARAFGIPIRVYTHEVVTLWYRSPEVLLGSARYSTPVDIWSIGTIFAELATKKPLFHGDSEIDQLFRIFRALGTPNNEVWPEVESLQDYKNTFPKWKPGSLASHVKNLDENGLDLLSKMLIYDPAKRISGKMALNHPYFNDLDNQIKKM
Sequence of CDK1/cyclin B (CDK1B) (P14635 whole entry partner): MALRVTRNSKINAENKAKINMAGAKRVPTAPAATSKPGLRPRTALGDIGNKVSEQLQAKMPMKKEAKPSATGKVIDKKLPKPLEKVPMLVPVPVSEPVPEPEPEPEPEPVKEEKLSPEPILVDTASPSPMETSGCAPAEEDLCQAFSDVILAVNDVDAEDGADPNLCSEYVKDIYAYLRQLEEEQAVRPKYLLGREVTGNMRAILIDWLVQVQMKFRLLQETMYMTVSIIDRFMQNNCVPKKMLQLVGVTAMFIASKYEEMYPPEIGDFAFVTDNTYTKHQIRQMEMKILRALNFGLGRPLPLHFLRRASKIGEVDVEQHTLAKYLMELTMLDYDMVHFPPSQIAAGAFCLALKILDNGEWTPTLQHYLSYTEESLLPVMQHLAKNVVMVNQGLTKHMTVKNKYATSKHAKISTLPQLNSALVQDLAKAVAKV
Sequence of CDK5/p25 (CDK5p25) (Q00535 whole entry): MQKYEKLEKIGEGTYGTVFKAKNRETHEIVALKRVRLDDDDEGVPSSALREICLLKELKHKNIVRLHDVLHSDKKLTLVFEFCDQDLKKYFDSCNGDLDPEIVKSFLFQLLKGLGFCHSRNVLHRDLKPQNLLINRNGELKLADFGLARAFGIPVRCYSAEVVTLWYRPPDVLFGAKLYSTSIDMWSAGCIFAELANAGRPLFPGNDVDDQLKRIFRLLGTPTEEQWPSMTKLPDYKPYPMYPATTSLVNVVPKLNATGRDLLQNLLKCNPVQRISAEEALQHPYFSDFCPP
Sequence of CDK5/p25 (CDK5p25) (Q15078 99-307 partner limits assumed): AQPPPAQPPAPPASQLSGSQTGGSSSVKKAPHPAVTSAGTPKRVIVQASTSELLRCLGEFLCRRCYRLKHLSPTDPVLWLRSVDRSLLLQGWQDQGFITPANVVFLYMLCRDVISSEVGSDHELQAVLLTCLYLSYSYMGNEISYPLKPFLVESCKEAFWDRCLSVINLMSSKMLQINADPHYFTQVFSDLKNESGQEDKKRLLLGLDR

One may read the GI50 as the concentration that inhibits growth by half. Low values mean more potent growth inhibition, high ones less potent growth inhibition. Regarding `Cn1cc(-c2nc(Nc3cn[nH]c3)ncc2F)cn1` [Compound 14, 5-Fluoro-4-(1-methyl-1H-pyrazol-4-yl)-N-(1H-pyrazol-4-yl)pyrimidin-2-amine], the Ki in experiment [1] was 18 nM; in experiment [2] it was 3 nM; in experiment [4], 7 nM; in experiment [5] it was 16 nM. For the same compound, halving of growth in experiment [3] (GI50) required 498 nM. For the same compound, the “fold lower antiproliferative activity against A2780 compared to 1” value in experiment [3] (versus 1) is “about 28 fold”.
By inhibition is commonly meant the percentage by which the read-out fell short of the control. Take `Cn1cc(Nc2ncc(F)c(-c3cnn(C)c3)n2)cn1` [Compound 16, 5-Fluoro-N,4-bis(1-methyl-1H-pyrazol-4-yl)pyrimidin-2-amine]: the Ki in experiment [1] amounted to 92 nM; in experiment [2], 18 nM; in experiment [4], 23 nM; in experiment [5], 98 nM. Further, the inhibition at 1 µM in experiment [3] came to 9%; in experiment [4], 97%.
Take `Cn1cc(Nc2ncc(Cl)c(-c3cnn(C)c3)n2)cn1` [Compound 17, 5-Chloro-N,4-bis(1-methyl-1H-pyrazol-4-yl)pyrimidin-2-amine]: the Ki in experiment [1] was 34 nM. For the same compound, in experiment [3], the inhibition at 1 µM turned out to be 87% and growth was halved (GI50) at 1020 nM. Further, the Ki in experiment [4] was determined as 11 nM.
In the case of `Cn1cc(-c2nc(Nc3cnn(CC(N)=O)c3)ncc2F)cn1` [Compound 18, 2-(4-((5-Fluoro-4-(1-methyl-1H-pyrazol-4-yl)pyrimidin-2-yl)amino)-1H-pyrazol-1-yl)acetamide], the results for the Ki in experiment [1], in experiment [2] and in experiment [4] were 112 nM, 193 nM and 85 nM, respectively. The inhibition at 1 µM is 0% in experiment [3] and 68% in experiment [5].
Consider `Cn1cc(-c2nc(Nc3cnn(CC(N)=O)c3)ncc2Cl)cn1` [Compound 19, 2-(4-((5-Chloro-4-(1-methyl-1H-pyrazol-4-yl)pyrimidin-2-yl)amino)-1H-pyrazol-1-yl)acetamide], for which the Ki in experiment [1] was determined as 18 nM; in experiment [2], 52 nM; in experiment [4], 25 nM; in experiment [5] it was 101 nM. Further, the inhibition at 1 µM in experiment [3] stood at 44%.
For `Cc1nn(C)cc1-c1nc(Nc2cnn(C)c2)ncc1F` [Compound 20, 4-(1,3-Dimethyl-1H-pyrazol-4-yl)-5-fluoro-N-(1-methyl-1H-pyrazol-4-yl)pyrimidin-2-amine], in that order: 164 nM, 18 nM, 26 nM, 343 nM and 7%.
Regarding `Cc1nn(C)cc1-c1nc(Nc2cnn(C)c2)ncc1Cl` [Compound 21, 5-Chloro-4-(1,3-dimethyl-1H-pyrazol-4-yl)-N-(1-methyl-1H-pyrazol-4-yl)pyrimidin-2-amine], the Ki was 225 nM in experiment [1], 35 nM in experiment [2], 23 nM in experiment [4] and 62 nM in experiment [5]. Moreover, the inhibition at 1 µM in experiment [3] worked out at 8%.
As to `Cn1cc(-c2nc(Nc3ccn[nH]3)ncc2Cl)cn1` [Compound 23, 5-Chloro-4-(1-methyl-1H-pyrazol-4-yl)-N-(1H-pyrazol-5-yl)pyrimidin-2-amine], the results for the inhibition at 1 µM in experiment [1] and in experiment [5] were 9% and 40%, respectively. The Ki in experiment [2] came out at 40 nM; in experiment [4], 90 nM. In addition, the GI50 in experiment [3] came to 7350 nM. In addition, the “fold less potent antiproliferative activity against A2780 than 15” value in experiment [3] (versus 15, GI50 ratio) is recorded as 47 fold. The “fold reduced CDK2 inhibition compared to 15” value in experiment [4] (versus 15, Ki ratio) worked out at 18 fold.
Regarding `Cn1cc(-c2nc(Nc3nccs3)ncc2Cl)cn1` [Compound 25, N-(5-Chloro-4-(1-methyl-1H-pyrazol-4-yl)pyrimidin-2-yl)thiazol-2-amine], the inhibition at 1 µM in experiment [1] is 31%; in experiment [3] it was 9%; in experiment [4], 46%; in experiment [5], 31%. Also, the Ki in experiment [2] was determined as 177 nM.
As to `Cn1cc(Nc2ncc(F)c(-c3cnn(CCN4CCOCC4)c3)n2)cn1` [Compound 31, 5-Fluoro-N-(1-methyl-1H-pyrazol-4-yl)-4-(1-(2-morpholinoethyl)-1H-pyrazol-4-yl)pyrimidin-2-amine], the inhibition at 1 µM in experiment [1] came to 26%; in experiment [2], 43%; in experiment [3], 0%; in experiment [4] it was 48%; in experiment [5] it was 24%.
With `Cn1cc(Nc2ncc(Cl)c(-c3cnn(CCN4CCOCC4)c3)n2)cn1` [Compound 32, 5-Chloro-N-(1-methyl-1H-pyrazol-4-yl)-4-(1-(2-morpholinoethyl)-1H-pyrazol-4-yl)pyrimidin-2-amine], the inhibition at 1 µM in experiment [1] is 36%; in experiment [3], 3%; in experiment [5], 21%. Further, the Ki in experiment [2] came out at 126 nM; in experiment [4], 252 nM.
In the case of `Cn1cc(Nc2ncc(F)c(-c3ccnn3C)n2)cn1` [Compound 35, 5-Fluoro-N-(1-methyl-1H-pyrazol-4-yl)-4-(1-methyl-1H-pyrazol-5-yl)pyrimidin-2-amine], the inhibition at 1 µM amounted to 49% in experiment [1]; 58% in experiment [2]; 19% in experiment [3]; 64% in experiment [4]; 45% in experiment [5].
